Test results taken from paper PMC6321291, “Synthesis, Biological Evaluation and Docking Studies of Benzoxazoles Derived from Thymoquinone” (Molecules, 2018).

Legend:
[1] = test system: phospho (Ser 473) Akt; assay: Western blot, pAkt in HeLa cells; format: cell-based, human; conditions: IC50 concentration, 48 h treatment
Protocol: (§1) Protein lysates were lysed in the buffer 50 mM Tris HCl (pH 8), 150 mM NaCl, 1% NP-40, 0.5% sodium deoxycholate, 0.1% SDS and protease and phosphatase inhibitor cocktail (Roche, Basel, Switzerland). A total of 50 μg of proteins were resolved on 10% SDS polyacrylamide gels by use of Mini-protean cell (Bio-Rad, Hercules, CA, USA). Membranes were incubated with primary antibodies against phospho (Tyr 1135) -IGF1 Receptor β (1:1000, rabbit mAb, Cell Signalling Technology, Danvers, MA, USA), phospho (Ser 473) Akt (1:1000, rabbit mAb, Cell Signalling Technology) and α tubulin (1:1000, mouse mAb, Sigma Aldrich) at 4 °C overnight. Secondary antibody linked to anti-mouse was used at 1:1000 (Dako, Santa Clara, CA, USA) and to anti-rabbit at 1:1000 (Dako). Signals were visualized by Western Lightening Chemiluminescence Reagent Plus Kit (Perkin Elmer, USA) on the ImageQuant LAS500 (GE Healthcare, Chicago, IL, USA). Signal intensities of particular bands were normalized with the intensity of the loading control α tubulin and compared in Quantity One software (Bio-Rad). The values are expressed as average value of three independent experiments ± standard error of the mean. Statistical analysis was performed in Microsoft Excel (Microsoft Corporation, Redmond, WA, USA) by using the ANOVA (p < 0.05).

[2] = test system: phospho (Tyr 1135) -IGF1 Receptor β; assay: Western blot, IGF1 Receptor β activated form in HepG2 cells; format: cell-based, human; conditions: IC50 concentration
Protocol: as §1

[3] = test system: HepG2 (hepatocellular carcinoma); assay: MTT assay, HepG2; format: cell-based; conditions: Homo sapiens, 72 h
Protocol: (§2) The tested compounds were dissolved in DMSO in five, 10-fold dilutions (0.01–100 µM). The cell lines HeLa (cervical carcinoma), SW620 (colorectal adenocarcinoma, metastatic), HepG2 (hepatocellular carcinoma), CFPAC-1 (ductal pancreatic adenocarcinoma), and WI38 (human lung fibroblast cell line), were cultured as monolayers and maintained in Dulbecco’s modified Eagle medium (DMEM) supplemented with 10% fetal bovine serum (FBS), 2 mM L-glutamine, 100 U mL^−1 penicillin and 100 μg mL^−1 streptomycin in a humidified atmosphere with 5% CO2 at 37 °C.
(§3) The MTT assay was used for evaluation of effects of tested compounds on viability of carcinoma and control cell lines. About 5000 cells per well were seeded onto a series of standard 96-well plates on day 0. Test agents were then added and incubated for further 72 h. Working dilutions of tested compounds were freshly prepared in the growth medium, on the day of testing. The solvent (DMSO) was also tested for eventual inhibitory activity by adjusting its concentration to be the same as in the working concentrations (DMSO concentration never exceeded 0.1%). After 72 h of incubation, the cell growth rate was evaluated by performing the MTT assay: experimentally determined absorbance values were transformed into a cell percentage growth (PG) using the formulas proposed by NIH and described previously. This method directly relies on control cells number at the day of assay because it compares the growth of treated cells with the growth of untreated cells in control wells on the same plate, the results are therefore a percentile difference from the calculated expected value.
(§4) If, however, all of the tested concentrations produce PGs exceeding the respective reference level of effect (e.g., PG value of 50) for a given cell line, the highest tested concentration is assigned as the default value (in the screening data report that default value is preceded by a “>” sign). Each test point was performed in quadruplicate in three individual experiments. The results were statistically analyzed (Analysis of variance (ANOVA), Tukey post-hoc test at p < 0.05). Finally, the effects of the tested substances were evaluated by plotting the mean percentage growth for each cell type in comparison to control on dose response graphs.

[4] = MTT assay, WI38 healthy control; format: cell-based; conditions: WI38 human lung fibroblast cells, WI38 healthy control human fibroblast cell line
Protocol: as §2, §3, §4

[5] = test system: CFPAC-1 (ductal pancreatic adenocarcinoma); assay: MTT assay, CFPAC-1; format: cell-based; conditions: Homo sapiens, 72 h
Protocol: as §2, §3, §4

[6] = test system: SW620 (colorectal adenocarcinoma, metastatic); assay: MTT assay, SW620; format: cell-based; conditions: Homo sapiens, SW-620, 72 h
Protocol: as §2, §3, §4

[7] = test system: phospho (Tyr 1135) -IGF1 Receptor β; assay: Western blot, IGF1 Receptor β activated form in HeLa cells; format: cell-based, human; conditions: IC50 concentration, 24 and 48 h treatments
Protocol: as §1

[8] = test system: phospho (Ser 473) Akt; assay: Western blot, pAkt in HepG2 cells; format: cell-based, human; conditions: IC50 concentration
Protocol: as §1

[9] = test system: HeLa (cervical carcinoma); assay: MTT assay, HeLa; format: cell-based; conditions: Homo sapiens, 72 h
Protocol: as §2, §3, §4

Compound: Cc1c(O)cc(C(C)C)c2oc(-c3ccc(F)cc3)nc12 [1f, 2-(4-Fluorophenyl)-4-methyl-7-isopropyl-1,3-benzoxazole-5-ol]
- pAkt levels (western blot) [1]: significantly decreased pAkt levels
- IGF1 Receptor β activated form expression (western blot) ([2]; 24 h treatment): significantly decreased expression
- IGF1 Receptor β activated form expression (western blot) ([2]; 48 h treatment): lack of signal
- IC50 [3]: 9.36 µM
- IC50 at 72 h [4]: 5.54 µM
- IC50 [5]: 33.8 µM
- IC50 [6]: 5.82 µM
- IGF1 Receptor β activated form expression (western blot) [7]: not detectable
- inhibition of Akt phosphorylation (western blot) ([8]; 24 h treatment): significant effect
- pAkt signal (western blot) ([8]; 48 h treatment): absence of pAkt signal
- IC50 [9]: 4.13 µM
